This note sets out measurements from paper PMC11576293, “New series of 4,6-diaryl pyrimidines: facile synthesis and antiproliferative activity as dual EGFR/VEGFR-2 inhibitors” (Frontiers in Chemistry, 2024).

By inhibition is commonly meant how much of the control response was suppressed.

Each structure is given as a SMILES string.

The first experiment has as its system 786-0. The experiment is described as follows: NCI-60 single-dose screen. The experiment is classed as cell-based. Conditions: Homo sapiens, single dose 10 µM, '-' = no inhibition, read-out: % Growth Inhibition. A digest of the protocol: (§1)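 NCI Developmental Therapeutics Program screen across 60 human cancer cell lines from nine tumor types; compounds tested at a single dose of 10 μM.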
Consider `COc1ccc(CSc2nc(-c3ccc(Cl)cc3)cc(-c3ccc(OC)cc3)n2)cc1` [Compound 15, 2-(4-Methoxybenzylthio)-4-(4-chlorophenyl)-6-(4-methoxyphenyl)pyrimidine], for which the inhibition at 10 µM was less than 0%.

Another experiment has as its system A498. The experiment is described as follows: NCI-60 single-dose screen. The experiment is classed as cell-based. Conditions: Homo sapiens, single dose 10 µM, '-' = no inhibition, read-out: % Growth Inhibition. A digest of the protocol:
as §1
Regarding `COc1ccc(CSc2nc(-c3ccc(Cl)cc3)cc(-c3ccc(OC)cc3)n2)cc1` [Compound 15, 2-(4-Methoxybenzylthio)-4-(4-chlorophenyl)-6-(4-methoxyphenyl)pyrimidine], the inhibition at 10 µM was less than 0%.

The next experiment relates to A549/ATCC. Description: NCI-60 single-dose screen. The experiment is classed as cell-based. As to conditions: Homo sapiens, single dose 10 µM, '-' = no inhibition, read-out: % Growth Inhibition. Put shortly:
as §1
As for `COc1ccc(CSc2nc(-c3ccc(Cl)cc3)cc(-c3ccc(OC)cc3)n2)cc1` [Compound 15, 2-(4-Methoxybenzylthio)-4-(4-chlorophenyl)-6-(4-methoxyphenyl)pyrimidine], the inhibition at 10 µM is less than 0%.

The next experiment concerns ACHN 1. Description: NCI-60 single-dose screen. It counts as cell-based. Conditions: Homo sapiens, single dose 10 µM, '-' = no inhibition, read-out: % Growth Inhibition. Put shortly:
as §1
As to `COc1ccc(CSc2nc(-c3ccc(Cl)cc3)cc(-c3ccc(OC)cc3)n2)cc1` [Compound 15, 2-(4-Methoxybenzylthio)-4-(4-chlorophenyl)-6-(4-methoxyphenyl)pyrimidine], the inhibition at 10 µM was 15.8%.

Another experiment deals with BT-549. Description: NCI-60 single-dose screen. It counts as cell-based. Conditions: Homo sapiens, single dose 10 µM, '-' = no inhibition, read-out: % Growth Inhibition. A digest of the protocol: as §1
For the compound `COc1ccc(CSc2nc(-c3ccc(Cl)cc3)cc(-c3ccc(OC)cc3)n2)cc1` [Compound 15, 2-(4-Methoxybenzylthio)-4-(4-chlorophenyl)-6-(4-methoxyphenyl)pyrimidine], the inhibition at 10 µM was less than 0%.

For the next experiment, the system named is CCRF-CEM. The experiment is described as follows: NCI-60 single-dose screen. The experiment is classed as cell-based. Conditions: Homo sapiens, single dose 10 µM, '-' = no inhibition, read-out: % Growth Inhibition. Put shortly:
as §1
With `COc1ccc(CSc2nc(-c3ccc(Cl)cc3)cc(-c3ccc(OC)cc3)n2)cc1` [Compound 15, 2-(4-Methoxybenzylthio)-4-(4-chlorophenyl)-6-(4-methoxyphenyl)pyrimidine], the inhibition at 10 µM is less than 0%.

The subject of another experiment is COLO 205. Description: NCI-60 single-dose screen. The experiment is classed as cell-based. Conditions: Homo sapiens, single dose 10 µM, '-' = no inhibition, read-out: % Growth Inhibition. A digest of the protocol:
as §1
With `COc1ccc(CSc2nc(-c3ccc(Cl)cc3)cc(-c3ccc(OC)cc3)n2)cc1` [Compound 15, 2-(4-Methoxybenzylthio)-4-(4-chlorophenyl)-6-(4-methoxyphenyl)pyrimidine], the inhibition at 10 µM was determined as 2.89%.

The next experiment deals with EKVX. Description: NCI-60 single-dose screen. It counts as cell-based. Conditions: Homo sapiens, single dose 10 µM, '-' = no inhibition, read-out: % Growth Inhibition. Put shortly:
as §1
As for `COc1ccc(CSc2nc(-c3ccc(Cl)cc3)cc(-c3ccc(OC)cc3)n2)cc1` [Compound 15, 2-(4-Methoxybenzylthio)-4-(4-chlorophenyl)-6-(4-methoxyphenyl)pyrimidine], the inhibition at 10 µM was less than 0%.

Another experiment deals with HCC-2998. The experiment is described as follows: NCI-60 single-dose screen. It counts as cell-based. As to conditions: Homo sapiens, single dose 10 µM, '-' = no inhibition, read-out: % Growth Inhibition. Put shortly:
as §1
As for `COc1ccc(CSc2nc(-c3ccc(Cl)cc3)cc(-c3ccc(OC)cc3)n2)cc1` [Compound 15, 2-(4-Methoxybenzylthio)-4-(4-chlorophenyl)-6-(4-methoxyphenyl)pyrimidine], the inhibition at 10 µM was less than 0%.

Another experiment concerns HCT-15. The experiment is described as follows: NCI-60 single-dose screen. The experiment is classed as cell-based. As to conditions: Homo sapiens, single dose 10 µM, '-' = no inhibition, read-out: % Growth Inhibition. A digest of the protocol: as §1
Take `COc1ccc(CSc2nc(-c3ccc(Cl)cc3)cc(-c3ccc(OC)cc3)n2)cc1` [Compound 15, 2-(4-Methoxybenzylthio)-4-(4-chlorophenyl)-6-(4-methoxyphenyl)pyrimidine]: the inhibition at 10 µM amounted to 0.53%.

Another experiment relates to HL-60(TB). Description: NCI-60 single-dose screen. The experiment is classed as cell-based. As to conditions: Homo sapiens, single dose 10 µM, '-' = no inhibition, read-out: % Growth Inhibition.
Turning to `COc1ccc(CSc2nc(-c3ccc(Cl)cc3)cc(-c3ccc(OC)cc3)n2)cc1` [Compound 15, 2-(4-Methoxybenzylthio)-4-(4-chlorophenyl)-6-(4-methoxyphenyl)pyrimidine], the inhibition at 10 µM came out at 3.01%.

The next experiment relates to HOP-62. The experiment is described as follows: NCI-60 single-dose screen. It counts as cell-based. Conditions: Homo sapiens, single dose 10 µM, '-' = no inhibition, read-out: % Growth Inhibition. A digest of the protocol:
as §1
Turning to `COc1ccc(CSc2nc(-c3ccc(Cl)cc3)cc(-c3ccc(OC)cc3)n2)cc1` [Compound 15, 2-(4-Methoxybenzylthio)-4-(4-chlorophenyl)-6-(4-methoxyphenyl)pyrimidine], the inhibition at 10 µM is less than 0%.

The subject of the next experiment is HT29. The experiment is described as follows: NCI-60 single-dose screen. It counts as cell-based. Conditions: Homo sapiens, HT-29, single dose 10 µM, '-' = no inhibition, read-out: % Growth Inhibition. A digest of the protocol: as §1
As for `COc1ccc(CSc2nc(-c3ccc(Cl)cc3)cc(-c3ccc(OC)cc3)n2)cc1` [Compound 15, 2-(4-Methoxybenzylthio)-4-(4-chlorophenyl)-6-(4-methoxyphenyl)pyrimidine], the inhibition at 10 µM was determined as 4.35%.

The test system of another experiment is IGROV1. Description: NCI-60 single-dose screen. It counts as cell-based. As to conditions: Homo sapiens, IGROV-1, single dose 10 µM, '-' = no inhibition, read-out: % Growth Inhibition. Put shortly:
as §1
As to `COc1ccc(CSc2nc(-c3ccc(Cl)cc3)cc(-c3ccc(OC)cc3)n2)cc1` [Compound 15, 2-(4-Methoxybenzylthio)-4-(4-chlorophenyl)-6-(4-methoxyphenyl)pyrimidine], the inhibition at 10 µM is less than 0%.

The next experiment deals with K-562. The experiment is described as follows: NCI-60 single-dose screen. It counts as cell-based. Conditions: Homo sapiens, K562, single dose 10 µM, '-' = no inhibition, read-out: % Growth Inhibition. A digest of the protocol: as §1
On to `COc1ccc(CSc2nc(-c3ccc(Cl)cc3)cc(-c3ccc(OC)cc3)n2)cc1` [Compound 15, 2-(4-Methoxybenzylthio)-4-(4-chlorophenyl)-6-(4-methoxyphenyl)pyrimidine], for which the inhibition at 10 µM was 12.8%.

The test system of another experiment is LOX IMVI. The experiment is described as follows: NCI-60 single-dose screen. As to conditions: Homo sapiens, single dose 10 µM, '-' = no inhibition, read-out: % Growth Inhibition. It counts as cell-based. Put shortly: as §1
Consider `COc1ccc(CSc2nc(-c3ccc(Cl)cc3)cc(-c3ccc(OC)cc3)n2)cc1` [Compound 15, 2-(4-Methoxybenzylthio)-4-(4-chlorophenyl)-6-(4-methoxyphenyl)pyrimidine], for which the inhibition at 10 µM is less than 0%.

The test system of the next experiment is M14. Description: NCI-60 single-dose screen. It counts as cell-based. As to conditions: Homo sapiens, single dose 10 µM, '-' = no inhibition, read-out: % Growth Inhibition. Put shortly: as §1
As for `COc1ccc(CSc2nc(-c3ccc(Cl)cc3)cc(-c3ccc(OC)cc3)n2)cc1` [Compound 15, 2-(4-Methoxybenzylthio)-4-(4-chlorophenyl)-6-(4-methoxyphenyl)pyrimidine], the inhibition at 10 µM is less than 0%.

The next experiment has as its system MALME-3M. Description: NCI-60 single-dose screen. It counts as cell-based. Conditions: Homo sapiens, single dose 10 µM, '-' = no inhibition, read-out: % Growth Inhibition. A digest of the protocol: as §1
Turning to `COc1ccc(CSc2nc(-c3ccc(Cl)cc3)cc(-c3ccc(OC)cc3)n2)cc1` [Compound 15, 2-(4-Methoxybenzylthio)-4-(4-chlorophenyl)-6-(4-methoxyphenyl)pyrimidine], the inhibition at 10 µM was less than 0%.

A further experiment concerns MCF7. Description: NCI-60 single-dose screen. The experiment is classed as cell-based. Conditions: Homo sapiens, single dose 10 µM, '-' = no inhibition, read-out: % Growth Inhibition. Put shortly:
as §1
For the compound `COc1ccc(CSc2nc(-c3ccc(Cl)cc3)cc(-c3ccc(OC)cc3)n2)cc1` [Compound 15, 2-(4-Methoxybenzylthio)-4-(4-chlorophenyl)-6-(4-methoxyphenyl)pyrimidine], the inhibition at 10 µM was less than 0%.

The next experiment has as its system MDA-MB-468. The experiment is described as follows: NCI-60 single-dose screen. As to conditions: Homo sapiens, single dose 10 µM, '-' = no inhibition, read-out: % Growth Inhibition. The experiment is classed as cell-based. Put shortly: as §1
Consider `COc1ccc(CSc2nc(-c3ccc(Cl)cc3)cc(-c3ccc(OC)cc3)n2)cc1` [Compound 15, 2-(4-Methoxybenzylthio)-4-(4-chlorophenyl)-6-(4-methoxyphenyl)pyrimidine], for which the inhibition at 10 µM is less than 0%.

The next experiment concerns MDA-MB231/ATCC. The experiment is described as follows: NCI-60 single-dose screen. The experiment is classed as cell-based. Conditions: Homo sapiens, MDA-MB-231, single dose 10 µM, '-' = no inhibition, read-out: % Growth Inhibition. A digest of the protocol:
as §1
For `COc1ccc(CSc2nc(-c3ccc(Cl)cc3)cc(-c3ccc(OC)cc3)n2)cc1` [Compound 15, 2-(4-Methoxybenzylthio)-4-(4-chlorophenyl)-6-(4-methoxyphenyl)pyrimidine], the inhibition at 10 µM is less than 0%.

For a further experiment, the system named is NCI-H23. The experiment is described as follows: NCI-60 single-dose screen. Conditions: Homo sapiens, single dose 10 µM, '-' = no inhibition, read-out: % Growth Inhibition. The experiment is classed as cell-based. A digest of the protocol: as §1
For `COc1ccc(CSc2nc(-c3ccc(Cl)cc3)cc(-c3ccc(OC)cc3)n2)cc1` [Compound 15, 2-(4-Methoxybenzylthio)-4-(4-chlorophenyl)-6-(4-methoxyphenyl)pyrimidine], the inhibition at 10 µM stood at 4.6%.

The subject of another experiment is NCI-H322M. Description: NCI-60 single-dose screen. The experiment is classed as cell-based. As to conditions: Homo sapiens, single dose 10 µM, '-' = no inhibition, read-out: % Growth Inhibition. Put shortly:
as §1
Turning to `COc1ccc(CSc2nc(-c3ccc(Cl)cc3)cc(-c3ccc(OC)cc3)n2)cc1` [Compound 15, 2-(4-Methoxybenzylthio)-4-(4-chlorophenyl)-6-(4-methoxyphenyl)pyrimidine], the inhibition at 10 µM was less than 0%.
